Measured values: patent US9957251B2 (Takeda Pharmaceutical Company Limited, priority 2014, dated 2018)
Structures can show the parent of a compound that is named as a salt.

Tests used:
CDK8/CycC = molecular target: T1, CDK8/CycC (Homo sapiens, UniProt P49336); test: CDK8 inhibitory activity (TR-FRET, Kinase Tracer-236 displacement); assay type: binding; conditions: 1 μM of the test compound; for inhibition at 1 µM: read-out: Percent inhibition of CDK8 activity (%); for Percent inhibition of CDK8 activity (%): 1 µM
T1 construct: purchased Carna Biosciences
T1 sequence (P49336 whole entry): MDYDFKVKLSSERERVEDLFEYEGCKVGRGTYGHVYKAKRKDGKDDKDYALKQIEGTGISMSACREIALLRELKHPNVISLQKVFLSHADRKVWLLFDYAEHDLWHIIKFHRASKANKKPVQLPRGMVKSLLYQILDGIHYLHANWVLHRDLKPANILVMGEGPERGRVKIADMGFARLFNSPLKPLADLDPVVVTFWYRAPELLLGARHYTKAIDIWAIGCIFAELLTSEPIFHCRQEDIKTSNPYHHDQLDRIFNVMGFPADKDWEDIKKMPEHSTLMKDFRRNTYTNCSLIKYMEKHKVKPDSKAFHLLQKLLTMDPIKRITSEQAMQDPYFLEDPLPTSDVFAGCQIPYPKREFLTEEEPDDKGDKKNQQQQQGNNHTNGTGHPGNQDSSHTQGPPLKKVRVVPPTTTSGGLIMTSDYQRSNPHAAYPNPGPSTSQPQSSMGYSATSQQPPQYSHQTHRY
T1 sequence (P24863 whole entry partner): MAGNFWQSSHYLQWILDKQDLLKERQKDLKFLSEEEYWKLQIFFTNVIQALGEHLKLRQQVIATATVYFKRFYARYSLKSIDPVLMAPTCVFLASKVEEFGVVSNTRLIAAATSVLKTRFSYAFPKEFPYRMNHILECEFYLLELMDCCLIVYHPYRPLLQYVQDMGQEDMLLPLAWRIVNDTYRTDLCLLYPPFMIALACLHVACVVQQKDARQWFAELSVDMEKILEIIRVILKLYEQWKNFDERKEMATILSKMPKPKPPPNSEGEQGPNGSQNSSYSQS
Procedure: (§1) The compound of the present invention was evaluated for its CDK8 inhibitory activity and CDK19 inhibitory activity by the following method. […] The primary diluted solution was dispensed in the amount of 2 μL/well to a 384-well plate, and then, a mixed solution of Eu^3+ Cryptate conjugated mouse monoclonal antibody anti-glutathione S-transferase (Cisbio) diluted 267-fold with an assay buffer and 60 nM Kinase Tracer-236 (Life technologies) was added thereto at 2 μL/well. After the addition, each kinase solution (84 ng/mL CDK8/CycC (Carna Biosciences) diluted with an assay buffer used for CDK8 inhibitory activity measurement, and 87 ng/mL CDC2L6/CycC (Carna Biosciences) diluted with an assay buffer used for CDK19 inhibitory activity measurement) was further added thereto at 2 μL/well. After the addition, the plate was left standing at room temperature for 1 hour, and then, the fluorescence intensity (excitation wavelength 320 nm, fluorescence wavelength 615 nm, 665 nm, delay time 50 μsec) was measured using an EnVision plate reader (PerkinElmer).

CDK19 (CDC2L6/CycC) = molecular target: T2, CDK19 (CDC2L6/CycC) (Homo sapiens, UniProt Q9BWU1); test: CDK19 inhibitory activity (TR-FRET, Kinase Tracer-236 displacement); assay type: binding; conditions: 1 μM of the test compound; for inhibition at 1 µM: read-out: Percent inhibition of CDK19 activity (%); for Percent inhibition of CDK19 activity (%): 1 µM
T2 construct: purchased Carna Biosciences
T2 sequence (Q9BWU1 whole entry): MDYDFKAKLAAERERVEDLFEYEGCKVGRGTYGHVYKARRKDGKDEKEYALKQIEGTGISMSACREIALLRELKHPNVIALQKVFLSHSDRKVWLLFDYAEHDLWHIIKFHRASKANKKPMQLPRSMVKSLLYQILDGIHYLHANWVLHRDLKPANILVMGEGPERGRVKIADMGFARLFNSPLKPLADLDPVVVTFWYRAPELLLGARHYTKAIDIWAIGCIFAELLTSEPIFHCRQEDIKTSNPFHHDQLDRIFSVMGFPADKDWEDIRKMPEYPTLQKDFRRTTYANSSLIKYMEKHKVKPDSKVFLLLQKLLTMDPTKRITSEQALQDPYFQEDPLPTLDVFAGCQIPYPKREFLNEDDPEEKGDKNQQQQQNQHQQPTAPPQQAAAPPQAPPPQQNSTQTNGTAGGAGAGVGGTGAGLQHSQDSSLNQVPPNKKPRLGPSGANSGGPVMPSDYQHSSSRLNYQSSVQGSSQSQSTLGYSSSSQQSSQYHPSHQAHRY
T2 sequence (P24863 whole entry partner): as the sequence (P24863 whole entry partner) above
Procedure: as §1

[1] = system: human multiple myeloma RPMI8226 cells; test: Inhibitory activity against human multiple myeloma RPMI8226 cell growth (CellTiter-Glo); assay type: cell-based; conditions: 1 μM of the test compound, cultured for 8 days; for inhibition at 1 µM: Homo sapiens, RPMI-8226, 192 h, read-out: Percent inhibition of RPMI8226 cell growth (%); for Percent inhibition of RPMI8226 cell growth (%): 1 µM
Procedure: The compound of the present invention was evaluated for its inhibitory activity against human multiple myeloma RPMI8226 cell growth by the following method.
A suspension of human multiple myeloma RPMI8226 cells (purchased from the Health Protection Agency) was inoculated at 40 μL (300 cells/well) to a 384-well plate and cultured at 37° C. for 1 day in a 5% CO2 incubator. After the culture, each test compound solution was added thereto at a test concentration of 1 μM using TECAN D300, and the cells were further cultured for 8 days. After the culture, CellTiter-Glo™ Luminescent Cell Viability Assay reagent (Promega) was added at 40 μL/well to a 384-well plate, and the amount of luminescence was measured using a luminometer. Inhibitory activity against human multiple myeloma RPMI8226 cell growth (percent inhibition (%)) of the test compound was calculated according to the following formula, which is based on the hypothesis that the amount of residual ATP reflects the number of cells. In this formula, 100% control represents the amount of luminescence from a well with only 0.1% DMSO added. Percent inhibition (%)=(1−(amount of luminescence of the test compound)÷(100% control))×100

SMILES | inhibition at 1 µM (CDK8/CycC) [%] | inhibition at 1 µM (CDK19 (CDC2L6/CycC)) [%] | inhibition at 1 µM [1] [%] | other results
O=C(/C=C/c1cnccc1-c1cnn(C2CCC2)c1)Nc1ccc(CN2CCOCC2)cc1 [Example 258, (2E)-3-(4-(1-cyclobutyl-1H-pyrazol-4-yl)pyridin-3-yl)-N-(4-(morpholin-4-ylmethyl)phenyl)acrylamide] | 96 | 96 | 54 | 
CC1COCCN1Cc1ccc(NC(=O)/C=C/c2cnccc2-c2cnn(C)c2)cc1 (stereo not drawn) [Example 54, (2E)-N-(4-((3-methylmorpholin-4-yl)methyl)phenyl)-3-(4-(1-methyl-1H-pyrazol-4-yl)pyridin-3-yl)acrylamide] | 100 | 95 | 55 | 
Cn1cc(-c2ccncc2/C=C/C(=O)Nc2ccc3cnccc3c2)cn1 [Example 154, (2E)-N-(isoquinolin-6-yl)-3-(4-(1-methyl-1H-pyrazol-4-yl)pyridin-3-yl)acrylamide] | 96 | 99 | 62 | 
CC1CN(Cc2ccc(NC(=O)/C=C/c3cnccc3-c3cnn(C)c3)cc2)CCO1 (stereo not drawn) [Example 55, (2E)-N-(4-((2-methylmorpholin-4-yl)methyl)phenyl)-3-(4-(1-methyl-1H-pyrazol-4-yl)pyridin-3-yl)acrylamide] | 99 | 97 | 55 | 
O=C(/C=C/c1cnccc1-c1cncs1)Nc1ccc(CN2CCOCC2)cc1 [Example 195, (2E)-N-(4-(morpholin-4-ylmethyl)phenyl)-3-(4-(1,3-thiazol-5-yl)pyridin-3-yl)acrylamide] | 94 | 97 | 52 | 
COc1ncc(-c2ccncc2/C=C/C(=O)Nc2ccc(CN3CCOCC3)cc2F)s1 [Example 250, (2E)-N-(2-Fluoro-4-(morpholin-4-ylmethyl)phenyl)-3-(4-(2-methoxy-1,3-thiazol-5-yl)pyridin-3-yl)acrylamide] | 99 | 96 | 63 | 
Cc1cc(NC(=O)/C=C/c2cnccc2-c2cnn(C)c2)ccc1CN1CCOCC1 [Example 109, (2E)-N-(3-Methyl-4-(morpholin-4-ylmethyl)phenyl)-3-(4-(1-methyl-1H-pyrazol-4-yl)pyridin-3-yl)acrylamide] | 96 | 98 | 58 | 
COC(C)c1ccc(NC(=O)/C=C/c2cnccc2-c2cnn(C3CC3)c2)cc1 (stereo not drawn) [Example 271, (2E)-3-(4-(1-cyclopropyl-1H-pyrazol-4-yl)pyridin-3-yl)-N-(4-(1-methoxyethyl)phenyl) acrylamide] | 102 | 93 | 62 | 
O=C(/C=C/c1cnccc1-c1cnn(C2CC2)c1)Nc1ccc(CN2CC(F)(F)C2)cc1 [Example 373, (2E)-3-(4-(1-Cyclopropyl-1H-pyrazol-4-yl)pyridin-3-yl)-N-(4-((3,3-difluoroazetidin-1-yl)methyl)phenyl)acrylamide sulfate] |  |  |  | Percent inhibition of CDK8 activity (%) (CDK8/CycC; sulfate): 101%; Percent inhibition of CDK19 activity (%) (CDK19 (CDC2L6/CycC); sulfate): 101%; Percent inhibition of RPMI8226 cell growth (%) ([1]; sulfate): 70%
Cn1cnc2ccc(-c3ccncc3/C=C/C(=O)Nc3ccc(CN4CCOCC4)cc3)cc21 [Example 234, (2E)-3-(4-(1-methyl-1H-benzimidazol-6-yl)pyridin-3-yl)-N-(4-(morpholin-4-ylmethyl)phenyl)acrylamide] | 102 | 102 | 65 | 
CCN1CCc2cc(NC(=O)/C=C/c3cnccc3-c3cnn(C)c3)ccc2C1 [Example 256, (2E)-N-(2-ethyl-1,2,3,4-tetrahydroisoquinolin-6-yl)-3-(4-(1-methyl-1H-pyrazol-4-yl)pyridin-3-yl)acrylamide] | 96 | 95 | 58 | 
CN1CCc2ccc(NC(=O)/C=C/c3cnccc3-c3cnn(C)c3)cc2C1 [Example 212, (2E)-3(4-(1-methyl-1H-pyrazol-4-yl)pyridin-3-yl)-N-(2-methyl-1,2,3,4-tetrahydroisoquinolin-7-yl)acrylamide] | 100 | 98 | 52 | 
O=C(/C=C/c1cnccc1-c1cnn(C2CC2)c1)Nc1ccc(CN2CC(F)(F)C2)cc1 [Example 376, (2E)-3-(4-(1-Cyclopropyl-1H-pyrazol-4-yl)pyridin-3-yl)-N-(4-((3,3-difluoroazetidin-1-yl)methyl)phenyl)acrylamide hemifumarate] |  |  |  | Percent inhibition of CDK8 activity (%) (CDK8/CycC): 99%; Percent inhibition of CDK19 activity (%) (CDK19 (CDC2L6/CycC)): 100%; Percent inhibition of RPMI8226 cell growth (%) [1]: 70%
CC(=O)N(C)Cc1cc(NC(=O)/C=C/c2cnccc2-c2cnn(C)c2)ccc1C [Example 246, (2E)-N-(3-((acetyl(methyl)amino)methyl)-4-methylphenyl)-3-(4-(1-methyl-1H-pyrazol-4-yl)pyridin-3-yl)acrylamide] | 95 | 93 | 49 | 

The next lines start with results.

inhibition at 1 µM (CDK8/CycC) [%] | inhibition at 1 µM (CDK19 (CDC2L6/CycC)) [%] | SMILES | inhibition at 1 µM [1] [%] | other results
101 | 96 | O=C(/C=C/c1cnccc1-c1cnn(C2CC2)c1)Nc1ccc(COCC(F)(F)F)cc1F [Example 330, (2E)-3-(4-(1-Cyclopropyl-1H-pyrazol-4-yl)pyridin-3-yl)-N-(2-fluoro-4-((2,2,2-trifluoroethoxy)methyl)phenyl)acrylamide] | 53 | 
102 | 95 | CC(C)(F)Cc1ccc(NC(=O)/C=C/c2cnccc2-c2cnn(C3CC3)c2)cc1 [Example 293, (2E)-3-(4-(1-cyclopropyl-1H-pyrazol-4-yl)pyridin-3-yl)-N-(4-(2-fluoro-2-methylpropyl)phenyl)acrylamide] | 61 | 
103 | 98 | O=C(/C=C/c1cncc(F)c1-c1cnn(C2CC2)c1)Nc1ccc2c(c1)OCCO2 [Example 331, (2E)-3-(4-(1-cyclopropyl-1H-pyrazol-4-yl)-5-fluoropyridin-3-yl)-N-(2,3-dihydro-1,4-benzodioxin-6-yl)acrylamide] | 65 | 
102 | 96 | O=C(/C=C/c1cnccc1-c1cnn(C2CC2)c1)Nc1ccc2c(c1)CN(CC(F)(F)CO)C2 [Example 340, (2E)-3-(4-(1-cyclopropyl-1H-pyrazol-4-yl)pyridin-3-yl)-N-(2-(2,2-difluoro-3-hydroxypropyl)-2,3-dihydro-1H-isoindol-5-yl)acrylamide] | 65 | 
102 | 97 | CC1CN(Cc2ccc(NC(=O)/C=C/c3cnccc3-c3cnn(C4CC4)c3)cc2)C1 [Example 322, (2E)-3-(4-(1-cyclopropyl-1H-pyrazol-4-yl)pyridin-3-yl)-N-(4-((3-methylazetidin-1-yl)methyl)phenyl)acrylamide] | 55 | 
105 | 74 | O=C(/C=C/c1cnccc1-c1cnn(C2CC2)c1)Nc1ccc(CN2CC(F)(F)C2)cc1F [Example 370, (2E)-3-(4-(1-cyclopropyl-1H-pyrazol-4-yl)pyridin-3-yl)-N-(4-((3,3-difluoroazetidin-1-yl)methyl)-2-fluorophenyl)acrylamide] | 51 | 
105 | 94 | Cn1cc(-c2ccncc2/C=C/C(=O)Nc2ccc3c(c2)CN(CC(F)F)C3)cn1 [Example 342, (2E)-N-(2-(2,2-difluoroethyl)-2,3-dihydro-1H-isoindol-5-yl)-3-(4-(1-methyl-1H-pyrazol-4-yl)pyridin-3-yl)acrylamide] | 63 | 
95 | 89 | O=C(/C=C/c1cnccc1-c1cnn(C2CC2)c1)Nc1ccc(C2CC2)cc1 [Example 290] | 53 | 
101 | 96 | Cn1cnc2ccc(-c3c(F)cncc3/C=C/C(=O)Nc3ccc4c(c3)CN(CC(F)(F)F)C4)cc21 [Example 357, (2E)-3-(5-fluoro-4-(1-methyl-1H-benzimidazol-6-yl)pyridin-3-yl)-N-(2-(2,2,2-trifluoroethyl)-2,3-dihydro-1H-isoindol-5-yl)acrylamide] | 69 | 
